Assay [1] concerns glucokinase. Kind of assay: Intracellular transfer of hepatic glucokinase with hormones and various compounds (rat hepatocyte primary culture). Format: cell-based. As to conditions: 25 mM D-glucose MEM. The protocol:
Wistar rats (male, aged 5 to 8 weeks) were used. A primary culture of the rat hepatocyte was incubated for a certain period of time in a 25 mM D-glucose-containing MEM culture medium supplemented with hormones and various compounds. The hepatocytes were fixed with 4% para-formaldehyde, and stained by a fluorescence antibody method using an anti-glucokinase antibody. A fluorescent image obtained with a co-focus laser microscope was analyzed with the NIH Image to calculate the fluorescence intensity in the nucleus and the cytoplasm, which were defined as the glucokinase level in the nucleus and the cytoplasm.

Assay [2] has as its target T1, glucokinase (Rattus norvegicus, UniProt P17712).
T1 construct: stained by a fluorescence antibody method using an anti-glucokinase antibody; endogenous in cells; host or cells: primary culture of hepatocytes from male Wistar rats
T1 sequence (P17712 1-465 isoform P17712-3): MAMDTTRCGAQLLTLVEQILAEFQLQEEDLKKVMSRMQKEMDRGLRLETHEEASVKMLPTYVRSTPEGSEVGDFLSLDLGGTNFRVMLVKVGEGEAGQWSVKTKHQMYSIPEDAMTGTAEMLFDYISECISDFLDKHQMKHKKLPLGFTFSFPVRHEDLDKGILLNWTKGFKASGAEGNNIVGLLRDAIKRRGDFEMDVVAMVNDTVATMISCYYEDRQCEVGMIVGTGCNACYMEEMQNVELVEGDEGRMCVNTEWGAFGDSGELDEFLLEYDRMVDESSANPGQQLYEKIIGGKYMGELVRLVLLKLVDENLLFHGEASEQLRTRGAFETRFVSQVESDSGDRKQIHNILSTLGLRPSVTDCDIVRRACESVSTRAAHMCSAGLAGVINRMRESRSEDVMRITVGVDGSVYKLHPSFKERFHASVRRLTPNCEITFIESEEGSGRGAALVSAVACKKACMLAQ
The assay is described as follows: Intracellular transfer of hepatic glucokinase with ketose (fluorescence antibody method, rat hepatocyte primary culture). It counts as cell-based. The protocol:
Wistar rats (male, aged 5 to 8 weeks) were used. […] The hepatocytes were fixed with 4% para-formaldehyde, and stained by a fluorescence antibody method using an anti-glucokinase antibody. A fluorescent image obtained with a co-focus laser microscope was analyzed with the NIH Image to calculate the fluorescence intensity in the nucleus and the cytoplasm, which were defined as the glucokinase level in the nucleus and the cytoplasm. […] By the same method as described above, the glucokinase level in the intracellular nucleus and the cytoplasm was determined.

Setting [3] is: ketose added, MEM culture medium with 5 mM or 15 mM D-glucose.

From patent US20140336267A1, “UTILIZATION OF THE FUNCTION OF RARE SUGAR AS PROMOTER FOR THE MIGRATION OF GLUCOKINASE FROM NUCLEUS TO CYTOPLASM” (NATIONAL UNIVERSITY CORPORATION KAGAWA UNIVERSITY, priority 2006, published 2014) come the findings set out here.

“Also recorded” adds a separate entry of the source.

As to `CCCC(=O)Nc1ncnc2c1ncn2[C@@H]1O[C@@H]2COP(=O)(O)O[C@H]2[C@H]1OC(=O)CCC` [Bt2cAMP], the cytoplasmic glucokinase result in the assay on glucokinase [1] (hormone or compound alone) is on record as “cytoplasmic glucokinase activity was reduced”.
On to `O=C(CO)[C@H](O)[C@@H](O)[C@H](O)CO` [D-sorbose], for which the “glucokinase transfer from nucleus to cytoplasm” value (“glucokinase transfer” below) on glucokinase [2] (at any of the ketose concentrations) is “did not influence glucokinase transfer; also recorded: hardly influenced such glucokinase transfer”.
For `O=C(CO)[C@@H](O)[C@@H](O)[C@H](O)CO` [D-tagatose], the “glucokinase transfer” value at glucokinase [2] (ketose added up to 1 mM, any of the D-glucose concentrations) is “glucokinase transferred from nucleus to cytoplasm”; on glucokinase [2] (setting [3]) it was “glucokinase transferred from nucleus to cytoplasm”; at glucokinase [2] (ketose concentration 10 mM or more), “no change of the glucokinase transfer was observed; also recorded: no glucokinase transfer from nucleus to cytoplasm was observed”.
Turning to `CC(C)Cn1c(=O)n(C)c(=O)c2[nH]cnc21` [IBMX], the cytoplasmic glucokinase result in the assay on glucokinase [1] (hormone or compound alone) is listed as “cytoplasmic glucokinase activity was reduced”.
In the case of `CCCCCCOC(=O)[C@]1(O)C[C@@H]2O[C@@]1(C)n1c3ccccc3c3c4c(c5c6ccccc6n2c5c31)C(=O)NC4` [KT-5720], in the assay on glucokinase [1] (compound in the presence of glucagon), the cytoplasmic glucokinase result is “Almost no reduction of cytoplasmic glucokinase with glucagon was observed any more”.
As to `O=C(CO)[C@H](O)[C@@H](O)[C@@H](O)CO` [L-fructose], the “glucokinase transfer” value at glucokinase [2] (ketose added at 20 mM or more, 5 mM or 15 mM D-glucose) is “glucokinase transfer from nucleus to cytoplasm was gradually reduced”; at glucokinase [2] (setting [3]) it was “glucokinase transferred from nucleus to cytoplasm”.
With `O=C(CO)[C@@H](O)[C@@H](O)[C@@H](O)CO` [L-psicose], at glucokinase [2] (setting [3]), the “glucokinase transfer” value is recorded as “glucokinase transferred from nucleus to cytoplasm”.
The same measure, in the same setting: as for `O=C(CO)[C@@H](O)[C@H](O)[C@@H](O)CO` [L-sorbose], the entry is “glucokinase transferred from nucleus to cytoplasm as the L-sorbose concentration was raised”; as for `O=C(CO)[C@H](O)[C@H](O)[C@@H](O)CO` [L-tagatose], “never influenced the glucokinase transfer”.
Consider `COc1cccc(-c2cc(=O)c3ccccc3o2)c1N` [PD-98059], for which the cytoplasmic glucokinase entry in the assay on glucokinase [1] (compound in the presence of insulin) is “such change could not be observed”.
As for “glucagon: hormone that transfers glucokinase from cytoplasm to nucleus”, the cytoplasmic glucokinase result in the assay with glucokinase [1] (hormone or compound alone) is listed as “cytoplasmic glucokinase activity was reduced”.
On the same count and under the same terms, as for “insulin: hormone that transfers glucokinase from nucleus to cytoplasm”, the entry is “increase of cytoplasmic glucokinase”.
